# From patent US9586956B2, “Isoquinoline and naphthyridine derivatives” (Genentech, Inc., priority 2012, dated 2017)
# Target: T1, purified human MAP4K4 kinase domain (Homo sapiens, UniProt O95819)
# T1 construct: purified human MAP4K4 kinase domain
# Experiment: MAP4K4 Inhibition Assay Protocol No. 1 (Caliper LabChip, moesin-derived peptide phosphorylation)
# Assay type: biochemical
# Details: Assay 1; 1 nM enzyme, 10 uM ATP, 45 min
# Experimental: The kinase activity of purified human MAP4K4 kinase domain was measured by monitoring the phosphorylation of a peptide substrate derived from moesin protein (Leu-Gly-Arg-Asp-Lys-Tyr-Lys-Thr-Leu-Arg-Gln-Ile-Arg-Gln) fluorescently labeled on the N-terminus with 5-carboxyfluorescein using the Caliper LabChip technology (Caliper Life Sciences, Hopkinton, Mass.). To determine inhibition constants (IC50), compounds were serially diluted in DMSO and added to 10 uL kinase reactions containing 1 nM purified MAP4K4 enzyme, 1 uM peptide substrate, 10 uM ATP, 10 mM MgCl2, 1 mM EGTA, 50 mM Hepes pH 7.2, 1 mM DTT, 0.01% Triton X-100, and 2% DMSO. Reactions were incubated at room temperature in Perkin Elmer Proxiplates for 45 minutes and stopped by the addition of 10 uL of an EDTA-containing solution (50 mM Hepes pH 7.2, 40 mM EDTA, 0.02% Triton X-100). The fraction of phosphorylated peptide was determined as a fraction of total peptide substrate using the Caliper Lab Chip 3000 according to the manufacturer's instructions. IC50 values were determined using the four-parameter non-linear fit model.
# T1 sequence (O95819 25-289 limits assumed): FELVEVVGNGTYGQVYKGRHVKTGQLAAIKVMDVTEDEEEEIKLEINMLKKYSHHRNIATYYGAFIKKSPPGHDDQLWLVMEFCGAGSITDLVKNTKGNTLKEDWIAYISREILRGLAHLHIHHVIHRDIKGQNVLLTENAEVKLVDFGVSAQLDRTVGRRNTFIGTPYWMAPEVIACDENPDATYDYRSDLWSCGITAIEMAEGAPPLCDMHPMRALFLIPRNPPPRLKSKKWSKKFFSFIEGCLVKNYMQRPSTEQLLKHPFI
row,IC50,Compound
1,0.0452 µM,"CNC(=O)c1nc(CNC(=O)c2cnc(N)c3cc(-c4cccc(F)c4)ccc23)no1 [Example 87, 3-[[[1-amino-7-(3-fluorophenyl)isoquinoline-4-carbonyl]amino]methyl]-N-methyl-1,2,4-oxadiazole-5-carboxamide]"
2,0.95 µM,"CC(C)(CNC(=O)c1cnc(N)c2cc(-c3cccc(F)c3)ccc12)N1CCOCC1 [Example 88, 1-amino-7-(3-fluorophenyl)-N-(2-methyl-2-morpholino-propyl)isoquinoline-4-carboxamide]"
3,0.231 µM,"Nc1ncc(C(=O)NCc2cnccn2)c2ccc(-c3cccc(F)c3)cc12 [Example 89, 1-amino-7-(3-fluorophenyl)-N-(pyrazin-2-ylmethyl) isoquinoline-4-carboxamide]"
4,0.141 µM,"COc1ccccc1CNC(=O)c1cnc(N)c2cc(-c3cccc(F)c3)ccc12 [Example 90, 1-amino-7-(3-fluorophenyl)-N-[(2-methoxyphenyl)methyl]isoquinoline-4-carboxamide]"
5,0.0511 µM,"COc1cccc(CNC(=O)c2cnc(N)c3cc(-c4cccc(F)c4)ccc23)c1 [Example 91, 1-amino-7-(3-fluorophenyl)-N-[(3-methoxyphenyl)methyl]isoquinoline-4-carboxamide]"
6,0.0335 µM,"CC(C)CNC(=O)c1cnc(N)c2cc(-c3cccc(F)c3)ccc12 [Example 92, 1-amino-7-(3-fluorophenyl)-N-isobutyl-isoquinoline-4-carboxamide]"
7,0.0645 µM,"Nc1ncc(C(=O)NCc2ccncc2)c2ccc(-c3cccc(F)c3)cc12 [Example 93, 1-amino-7-(3-fluorophenyl)-N-(4-pyridylmethyl) isoquinoline-4-carboxamide]"
8,0.077 µM,"Nc1ncc(C(=O)NCc2cccnc2)c2ccc(-c3cccc(F)c3)cc12 [Example 94, 1-amino-7-(3-fluorophenyl)-N-(3-pyridylmethyl) isoquinoline-4-carboxamide]"
9,0.0391 µM,"Cc1cc(NC(=O)c2cnc(N)c3cc(-c4cccc(F)c4)ccc23)ccn1 [Example 95, 1-amino-7-(3-fluorophenyl)-N-(2-methyl-4-pyridyl) isoquinoline-4-carboxamide]"
10,0.179 µM,"Nc1ncc(C(=O)NCc2ccccn2)c2ccc(-c3cccc(F)c3)cc12 [Example 96, 1-amino-7-(3-fluorophenyl)-N-(2-pyridylmethyl) isoquinoline-4-carboxamide]"
11,0.03 µM,"Nc1ncc(C(=O)NC2CCC2)c2ccc(-c3cccc(F)c3)cc12 [Example 97, 1-amino-N-cyclobutyl-7-(3-fluorophenyl) isoquinoline-4-carboxamide]"
12,0.0459 µM,"Nc1ncc(C(=O)NC2CCCC2)c2ccc(-c3cccc(F)c3)cc12 [Example 98, 1-amino-N-cyclopentyl-7-(3-fluorophenyl) isoquinoline-4-carboxamide]"
13,0.0257 µM,"CCNC(=O)c1cnc(N)c2cc(-c3cccc(F)c3)ccc12 [Example 99, 1-amino-N-ethyl-7-(3-fluorophenyl)isoquinoline-4-carboxamide]"
14,0.0395 µM,"Nc1ncc(C(=O)NCCCO)c2ccc(-c3cccc(F)c3)cc12 [Example 100, 1-amino-7-(3-fluorophenyl)-N-(3-hydroxypropyl) isoquinoline-4-carboxamide]"
15,0.0399 µM,"Nc1ncc(C(=O)NCC2CC2)c2ccc(-c3cccc(F)c3)cc12 [Example 101, 1-amino-N-(cyclopropylmethyl)-7-(3-fluorophenyl) isoquinoline-4-carboxamide]"
16,0.135 µM,"CC(C)NC(=O)c1cnc(N)c2cc(-c3cccc(F)c3)ccc12 [Example 102, 1-amino-7-(3-fluorophenyl)-N-isopropyl-isoquinoline-4-carboxamide]"
17,0.115 µM,"NC(=O)CNC(=O)c1cnc(N)c2cc(-c3cccc(F)c3)ccc12 [Example 103, 1-amino-N-(2-amino-2-oxo-ethyl)-7-(3-fluorophenyl) isoquinoline-4-carboxamide]"
